Results from patent US10413535B2, “Pharmaceutical compositions comprising an integrin ALPHA4 antagonist for use in treating ocular inflammatory conditions” (AXEROVISION, INC., priority 2015, dated 2019).
Where two headings read alike, the source gives them in different places.

Experiments:
[1] = Toxicokinetics in 13-week topical ocular rabbit study; conditions: New Zealand White, in vivo, topical or ocular
Description: GW559090A was given to New Zealand White Rabbits by topical ocular administration for 13 weeks. Animals were dosed six or twelve times per day, with one hour between doses. Treatment groups were: (1) vehicle (12 times a day), (2) 30 mg/mL/occasion given six times a day, (3) 50 mg/mL/occasion given six times a day, or (4) 50 mg/mL/occasion, given 12 times a day.
GW559090A was formulated as a stock solution in 25 mM phosphate buffer with 0.5% sodium chloride to provide a 50 mg/mL stock solution, which was used for administration to Groups 3 or 4, or further diluted with 25 mM phosphate buffer with 0.75% sodium chloride to provide a 30 mg/mL solution for administration to Group 2. Control animals were treated with the vehicle for 50 mg/mL solution (25 mM phosphate buffer with 0.5% sodium chloride).
During the 13 week treatment period rabbits received daily topical ocular doses of GW559090A or vehicle at a constant dose volume of 0.06 mL (given 6 or 12 times a day, with one hour between doses). The test article formulation or vehicle was carefully dropped into the partially everted lower eyelid of the right eye from a suitable distance, to prevent contact of the positive displacement pipette with the eye. The lower and upper lids were then gently held together for approximately five seconds, to prevent loss of dose and aid even distribution across the external ocular surface. The un-dosed eye was not manipulated at any time and served as a within animal untreated control site.

[2] = system: J6 cell adhesion to MAdCAM; assay: MAdCAM cell adhesion assay, J6 cells; type: cell-based, human
Description: Jurkat J6 cells (human lymphoblast cell line) were grown as a suspension culture in RPMI 1640 supplemented with FCS (10%) and glutamine (2 mM). RPMI8866 cells (human B lymphoid cell line) were grown as a suspension culture in RPMI 1640 supplemented with FCS (10%) and glutamine (2 mM). RBL-2H3 cells (rat basophilic cell line) were cultured in Eagle's MEM plus Earles salts supplemented with 2 mM L-glutamine, 1 mM sodium pyruvate, 1× non-essential amino acids, 1 mM Na pyruvate 10% heat inactivated foetal calf serum.
Polystyrene 96-well microtitre plates were coated with IgG at a concentration of 0.05 mg/mL in bicarbonate buffer for 2.5 hours at 37° C. The solution was aspirated and the plates washed twice with PBS. The plates were then incubated overnight at 4° C. with MAdCAM at a concentration of 204.0 ng/mL in 3% BSA in PBS. Prior to use the MAdCAM was aspirated and the plates washed twice with PBS. J6 or RPMI cells (as required) were labelled with the fluorescent dye BCECF-AM (10 μM and 6×10^6 cells/mL) for 10 min at 37° C. before the excess was removed by centrifugation at 500 g for 5 min and the cells resuspended at a cell concentration of 1.2×10^7 cells/mL in HBSS. Equal volumes of HBSS containing the compound of formula I (over concentration range 38.1 pM to 10 μM) and cells were added to the MAdCAM coated plates. […] The plates were counted in a Wallac Viktor.

[3] = female, 30 mg/mL/occasion, female rabbits, 30 mg/mL, 6 daily doses, Day 1, after the first daily dose
[4] = female, 30 mg/mL/occasion, female rabbits, 30 mg/mL, 6 daily doses, Week 4, after the first daily dose
[5] = female, 30 mg/mL/occasion, female rabbits, 30 mg/mL, 6 daily doses, Week 13, after the first daily dose
[6] = female, 50 mg/mL/occasion, female rabbits, 50 mg/mL, 6 daily doses, Day 1, after the first daily dose
[7] = female, 50 mg/mL/occasion, female rabbits, 50 mg/mL, 6 daily doses, Week 4, after the first daily dose
[8] = female, 50 mg/mL/occasion, female rabbits, 50 mg/mL, 6 daily doses, Week 13, after the first daily dose
[9] = female, 50 mg/mL/occasion, female rabbits, 50 mg/mL, 12 daily doses, Day 1, after the first daily dose
[10] = female, 50 mg/mL/occasion, female rabbits, 50 mg/mL, 12 daily doses, Week 4, after the first daily dose
[11] = female, 50 mg/mL/occasion, female rabbits, 50 mg/mL, 12 daily doses, Week 14, after the first daily dose
[12] = male, 30 mg/mL/occasion, male rabbits, 30 mg/mL, 6 daily doses, Day 1, after the first daily dose
[13] = male, 30 mg/mL/occasion, male rabbits, 30 mg/mL, 6 daily doses, Week 4, after the first daily dose
[14] = male, 30 mg/mL/occasion, male rabbits, 30 mg/mL, 6 daily doses, Week 13, after the first daily dose
[15] = male, 50 mg/mL/occasion, male rabbits, 50 mg/mL, 6 daily doses, Day 1, after the first daily dose
[16] = male, 50 mg/mL/occasion, male rabbits, 50 mg/mL, 6 daily doses, Week 4, after the first daily dose
[17] = male, 50 mg/mL/occasion, male rabbits, 50 mg/mL, 6 daily doses, Week 13, after the first daily dose
[18] = male, 50 mg/mL/occasion, male rabbits, 50 mg/mL, 12 daily doses, Day 1, after the first daily dose
[19] = male, 50 mg/mL/occasion, male rabbits, 50 mg/mL, 12 daily doses, Week 4, after the first daily dose
[20] = male, 50 mg/mL/occasion, male rabbits, 50 mg/mL, 12 daily doses, Week 14, after the first daily dose

`Cc1ccccc1OCC(=O)N[C@@H](CC(C)C)C(=O)N[C@@H](Cc1ccc(OC(=O)N2CCC(C(N)=O)CC2)cc1)C(=O)O` [GW559090, (2S)-3-[4-({[4-(Aminocarbonyl)-1-piperidinyl]carbonyl}oxy)phenyl]-2-[((2S)-4-methyl-2-{[2-(2-methylphenoxy)acetyl]amino}pentanoyl)amino]propanoic acid] showed a Cmax [1, 3] of 16 ng/mL, a Tmax [1, 3] of 4.98 min and an AUC(0-t) ([1]; female, 30 mg/mL/occasion, female rabbits, 30 mg/mL, 6 daily doses, Day 1, read-out: AUC0-1) of 4.19 ng·h/mL. For the same compound, the AUC(0-t) ([1]; female, 30 mg/mL/occasion, female rabbits, 30 mg/mL, 6 daily doses, Day 1, read-out: AUC0-24) was 25.1 ng·h/mL, the Cmax [1, 4] was 32.4 ng/mL and the Tmax [1, 4] was 4.98 min. The AUC(0-t) ([1]; female, 30 mg/mL/occasion, female rabbits, 30 mg/mL, 6 daily doses, Week 4, read-out: AUC0-1) was 10.6 ng·h/mL, the AUC(0-t) ([1]; female, 30 mg/mL/occasion, female rabbits, 30 mg/mL, 6 daily doses, Week 4, read-out: AUC0-24) was 63.6 ng·h/mL and the Cmax [1, 5] was 23.5 ng/mL. The Tmax [1, 5] was 15 min, the AUC(0-t) ([1]; female, 30 mg/mL/occasion, female rabbits, 30 mg/mL, 6 daily doses, Week 13, read-out: AUC0-1) was 9.83 ng·h/mL and the AUC(0-t) ([1]; female, 30 mg/mL/occasion, female rabbits, 30 mg/mL, 6 daily doses, Week 13, read-out: AUC0-24) was 59 ng·h/mL. It also gave a Cmax [1, 6] of 67.8 ng/mL, a Tmax [1, 6] of 4.98 min and an AUC(0-t) ([1]; female, 50 mg/mL/occasion, female rabbits, 50 mg/mL, 6 daily doses, Day 1, read-out: AUC0-1) of 11 ng·h/mL. For the same compound, the AUC(0-t) ([1]; female, 50 mg/mL/occasion, female rabbits, 50 mg/mL, 6 daily doses, Day 1, read-out: AUC0-24) was 66 ng·h/mL, the Cmax [1, 7] was 44.4 ng/mL and the Tmax [1, 7] was 4.98 min. It also gave an AUC(0-t) ([1]; female, 50 mg/mL/occasion, female rabbits, 50 mg/mL, 6 daily doses, Week 4, read-out: AUC0-1) of 12.6 ng·h/mL, an AUC(0-t) ([1]; female, 50 mg/mL/occasion, female rabbits, 50 mg/mL, 6 daily doses, Week 4, read-out: AUC0-24) of 75.6 ng·h/mL and a Cmax [1, 8] of 49.7 ng/mL. The Tmax [1, 8] was 4.98 min, the AUC(0-t) ([1]; female, 50 mg/mL/occasion, female rabbits, 50 mg/mL, 6 daily doses, Week 13, read-out: AUC0-1) was 15.7 ng·h/mL and the AUC(0-t) ([1]; female, 50 mg/mL/occasion, female rabbits, 50 mg/mL, 6 daily doses, Week 13, read-out: AUC0-24) was 94.2 ng·h/mL. It also gave a Cmax [1, 9] of 30.6 ng/mL, a Tmax [1, 9] of 4.98 min and an AUC(0-t) ([1]; female, 50 mg/mL/occasion, female rabbits, 50 mg/mL, 12 daily doses, Day 1, read-out: AUC0-1) of 7.3 ng·h/mL. The AUC(0-t) ([1]; female, 50 mg/mL/occasion, female rabbits, 50 mg/mL, 12 daily doses, Day 1, read-out: AUC0-24) was 87.6 ng·h/mL, the Cmax [1, 10] was 56.6 ng/mL and the Tmax [1, 10] was 4.98 min. The AUC(0-t) ([1]; female, 50 mg/mL/occasion, female rabbits, 50 mg/mL, 12 daily doses, Week 4, read-out: AUC0-1) was 13.1 ng·h/mL, the AUC(0-t) ([1]; female, 50 mg/mL/occasion, female rabbits, 50 mg/mL, 12 daily doses, Week 4, read-out: AUC0-24) was 157 ng·h/mL and the Cmax [1, 11] was 68 ng/mL. For the same compound, the Tmax [1, 11] was 4.98 min, the AUC(0-t) ([1]; female, 50 mg/mL/occasion, female rabbits, 50 mg/mL, 12 daily doses, Week 14, read-out: AUC0-1) was 35.5 ng·h/mL and the AUC(0-t) ([1]; female, 50 mg/mL/occasion, female rabbits, 50 mg/mL, 12 daily doses, Week 14, read-out: AUC0-24) was 426 ng·h/mL. For the same compound, the Cmax [1, 12] was 30.8 ng/mL, the Tmax [1, 12] was 4.98 min and the AUC(0-t) ([1]; male, 30 mg/mL/occasion, male rabbits, 30 mg/mL, 6 daily doses, Day 1, read-out: AUC0-1) was 7.86 ng·h/mL. The AUC(0-t) ([1]; male, 30 mg/mL/occasion, male rabbits, 30 mg/mL, 6 daily doses, Day 1, read-out: AUC0-24) was 47.2 ng·h/mL, the Cmax [1, 13] was 51.4 ng/mL and the Tmax [1, 13] was 4.98 min. The AUC(0-t) ([1]; male, 30 mg/mL/occasion, male rabbits, 30 mg/mL, 6 daily doses, Week 4, read-out: AUC0-1) was 9.23 ng·h/mL, the AUC(0-t) ([1]; male, 30 mg/mL/occasion, male rabbits, 30 mg/mL, 6 daily doses, Week 4, read-out: AUC0-24) was 55.4 ng·h/mL and the Cmax [1, 14] was 11.8 ng/mL. The Tmax [1, 14] was 4.98 min, the AUC(0-t) ([1]; male, 30 mg/mL/occasion, male rabbits, 30 mg/mL, 6 daily doses, Week 13, read-out: AUC0-1) was 9.1 ng·h/mL and the AUC(0-t) ([1]; male, 30 mg/mL/occasion, male rabbits, 30 mg/mL, 6 daily doses, Week 13, read-out: AUC0-24) was 54.6 ng·h/mL. For the same compound, the Cmax [1, 15] was 105 ng/mL, the Tmax [1, 15] was 4.98 min and the AUC(0-t) ([1]; male, 50 mg/mL/occasion, male rabbits, 50 mg/mL, 6 daily doses, Day 1, read-out: AUC0-1) was 14.4 ng·h/mL. It also gave an AUC(0-t) ([1]; male, 50 mg/mL/occasion, male rabbits, 50 mg/mL, 6 daily doses, Day 1, read-out: AUC0-24) of 86.4 ng·h/mL, a Cmax [1, 16] of 80.4 ng/mL and a Tmax [1, 16] of 4.98 min. The AUC(0-t) ([1]; male, 50 mg/mL/occasion, male rabbits, 50 mg/mL, 6 daily doses, Week 4, read-out: AUC0-1) was 17.9 ng·h/mL, the AUC(0-t) ([1]; male, 50 mg/mL/occasion, male rabbits, 50 mg/mL, 6 daily doses, Week 4, read-out: AUC0-24) was 107 ng·h/mL and the Cmax [1, 17] was 32.2 ng/mL. It also gave a Tmax [1, 17] of 4.98 min, an AUC(0-t) ([1]; male, 50 mg/mL/occasion, male rabbits, 50 mg/mL, 6 daily doses, Week 13, read-out: AUC0-1) of 17.6 ng·h/mL and an AUC(0-t) ([1]; male, 50 mg/mL/occasion, male rabbits, 50 mg/mL, 6 daily doses, Week 13, read-out: AUC0-24) of 106 ng·h/mL. For the same compound, the Cmax [1, 18] was 66.3 ng/mL, the Tmax [1, 18] was 4.98 min and the AUC(0-t) ([1]; male, 50 mg/mL/occasion, male rabbits, 50 mg/mL, 12 daily doses, Day 1, read-out: AUC0-1) was 12.1 ng·h/mL. For the same compound, the AUC(0-t) ([1]; male, 50 mg/mL/occasion, male rabbits, 50 mg/mL, 12 daily doses, Day 1, read-out: AUC0-24) was 145 ng·h/mL, the Cmax [1, 19] was 41.4 ng/mL and the Tmax [1, 19] was 4.98 min. It also gave an AUC(0-t) ([1]; male, 50 mg/mL/occasion, male rabbits, 50 mg/mL, 12 daily doses, Week 4, read-out: AUC0-1) of 11.6 ng·h/mL, an AUC(0-t) ([1]; male, 50 mg/mL/occasion, male rabbits, 50 mg/mL, 12 daily doses, Week 4, read-out: AUC0-24) of 139 ng·h/mL and a Cmax [1, 20] of 38.1 ng/mL. The Tmax [1, 20] was 30 min, the AUC(0-t) ([1]; male, 50 mg/mL/occasion, male rabbits, 50 mg/mL, 12 daily doses, Week 14, read-out: AUC0-1) was 19.6 ng·h/mL and the AUC(0-t) ([1]; male, 50 mg/mL/occasion, male rabbits, 50 mg/mL, 12 daily doses, Week 14, read-out: AUC0-24) was 235 ng·h/mL. For the same compound, the “Inhibition of J6 cell adhesion to MAdCAM (curve form)” value [2] was “biphasic”.
